Assay results reported in patent US20070049564A1 (Wyeth, priority 2005, published 2007).
In brackets after ≈: the same amount, converted by molar mass. Read-outs that look alike come from different tables or passages of the source.

What was measured:
E. coli GC 2236 = assay: MIC, broth microdilution; details: Escherichia coli, GC2236, E. coli GC 2236
E. coli GC 2231 = assay: MIC, broth microdilution; details: Escherichia coli, GC2231, E. coli GC 2231
E. coli GC 2235 = assay: MIC, broth microdilution; details: Escherichia coli, GC2235, E. coli GC 2235
E. coli GC 2233 = assay: MIC, broth microdilution; details: Escherichia coli, GC2233, E. coli GC 2233
E. coli GC 2234 = assay: MIC, broth microdilution; details: Escherichia coli, GC2234, E. coli GC 2234
E. coli GC 2272 = assay: MIC, broth microdilution; details: Escherichia coli, GC2272, E. coli GC 2272
E. coli GC 4560 = assay: MIC, broth microdilution; details: Escherichia coli, GC4560, E. coli GC 4560
E. coli GC 6465 = assay: MIC, broth microdilution; details: Escherichia coli, GC6465, E. coli GC 6465
E. coli GC 2203 = assay: MIC, broth microdilution; details: Escherichia coli, GC2203, E. coli GC 2203
S. typhimurium GC 2172 = assay: MIC, broth microdilution; details: Salmonella enterica, TYPHIMURIUM, S. typhimurium GC 2172
S. aureus GC 1131 = assay: MIC, broth microdilution; details: Staphylococcus aureus, GC1131, S. aureus GC 1131
S. aureus GC 6466 = assay: MIC, broth microdilution; details: Staphylococcus aureus, GC6466, S. aureus GC 6466
S. aureus GC 6467 = assay: MIC, broth microdilution; details: Staphylococcus aureus, GC6467, S. aureus GC 6467
S. aureus GC 1079 = assay: MIC, broth microdilution; details: Staphylococcus aureus, GC1079, S. aureus GC 1079
Protocol: (§1) Antimicrobial susceptibility testing. The in vitro activities of the antibiotics are determined by the broth microdilution method as recommended by the National Committee for Clinical Laboratory Standards (NCCLS) (1). Mueller-Hinton II broth (MHBII)(BBL Cockeysville, Md.) is the medium employed in the testing procedures. Microtiter plates containing serial dilutions of each antimicrobial agent are inoculated with each organism to yield the appropriate density (10^5 CFU/ml) in a 100 μl final volume. The plates are incubated for 18-22 hours at 35° C. in ambient air.
(§2) Representative compounds were first incubated in mouse serum for an hour prior to the in vitro testing against a panel of selected gram-positive and gram-negative bacteria strains. All compounds were also pre-incubated in water for an hour prior to testing as control. Representative compounds of Formula I were incubated in human serum prior to MIC determination.

S. epidermidis GC 4935 = assay: MIC, broth microdilution; details: Staphylococcus epidermidis, GC4935, S. epidermidis GC 4935
E. faecalis GC 4555 = assay: MIC, broth microdilution; details: Enterococcus faecalis, GC4555, E. faecalis GC 4555
E. faecalis GC 2267 = assay: MIC, broth microdilution; details: Enterococcus faecalis, GC2267, E. faecalis GC 2267
E. faecium GC 4556 = assay: MIC, broth microdilution; details: Enterococcus faecium, GC4556, E. faecium GC 4556
Protocol: as §1, §2

S. pneumoniae* GC 4465 = assay: MIC, broth microdilution; details: Streptococcus pneumoniae, S. pneumoniae* GC 4465
Staph. = assay: Range of MIC for Staph. strains, including MRSA; details: Staphylococcus aureus, MRSA
[1] = read-out: Range of MIC, Staph (Mouse Serum)
[2] = read-out: Range of MIC, Staph (Water)

For CCCN(CC(=O)Nc1cc(N(C)C)c2c(c1O)C(=O)C1=C(O)[C@]3(O)C(=O)C(C(N)=O)=C(O)[C@@H](N(C)C)[C@@H]3C[C@@H]1C2)C(=O)OCOC(=O)Cc1ccccc1 [Example 11, ({[(2-{[(5aR,6aS,7S,10aS)-9-(aminocarbonyl)-4,7-bis(dimethylamino)-1,8,10a,11′-tetrahydroxy-10,12-dioxo-5,5a,6,6a,7,10,10a,12-octahydrotetracen-2-yl]amino}-2-oxoethyl)(propyl)amino]carbonyl}oxy)methyl phenylacetate], the MIC (E. coli GC 2236; Mouse Serum pre-incubation) was 0.5 µg/mL (≈ 0.655 µM), the MIC (E. coli GC 2236; Water pre-incubation) was 8 µg/mL (≈ 10.5 µM) and the MIC (E. coli GC 2231; Mouse Serum pre-incubation) was 2 µg/mL (≈ 2.62 µM). For the same molecule, the MIC (E. coli GC 2231; Water pre-incubation) was 64 µg/mL (≈ 83.8 µM), the MIC (E. coli GC 2235; Mouse Serum pre-incubation) was 0.25 µg/mL (≈ 0.327 µM) and the MIC (E. coli GC 2235; Water pre-incubation) was 4 µg/mL (≈ 5.24 µM). It also gave an MIC (E. coli GC 2233; Mouse Serum pre-incubation) of 0.25 µg/mL (≈ 0.327 µM), an MIC (E. coli GC 2233; Water pre-incubation) of 8 µg/mL (≈ 10.5 µM) and an MIC (E. coli GC 2234; Mouse Serum pre-incubation) of 0.5 µg/mL (≈ 0.655 µM). For the same molecule, the MIC (E. coli GC 2234; Water pre-incubation) was 16 µg/mL (≈ 20.9 µM), the MIC (E. coli GC 2272; Mouse Serum pre-incubation) was 0.25 µg/mL (≈ 0.327 µM) and the MIC (E. coli GC 2272; Water pre-incubation) was 4 µg/mL (≈ 5.24 µM). The MIC (E. coli GC 4560; Mouse Serum pre-incubation) was 0.12 µg/mL (≈ 0.157 µM), the MIC (E. coli GC 4560; Water pre-incubation) was 0.12 µg/mL (≈ 0.157 µM) and the MIC (E. coli GC 6465; Mouse Serum pre-incubation) was 8 µg/mL (≈ 10.5 µM). For the same molecule, the MIC (E. coli GC 6465; Water pre-incubation) was greater than 64 µg/mL, the MIC (E. coli GC 2203; Mouse Serum pre-incubation) was 0.25 µg/mL (≈ 0.327 µM) and the MIC (E. coli GC 2203; Water pre-incubation) was 16 µg/mL (≈ 20.9 µM). For the same molecule, the MIC (S. typhimurium GC 2172; Mouse Serum pre-incubation) was 4 µg/mL (≈ 5.24 µM), the MIC (S. typhimurium GC 2172; Water pre-incubation) was greater than 64 µg/mL and the MIC (S. aureus GC 1131; Mouse Serum pre-incubation) was 0.25 µg/mL (≈ 0.327 µM). The MIC (S. aureus GC 1131; Water pre-incubation) was 0.25 µg/mL (≈ 0.327 µM), the MIC (S. aureus GC 6466; Mouse Serum pre-incubation) was 0.25 µg/mL (≈ 0.327 µM) and the MIC (S. aureus GC 6466; Water pre-incubation) was 0.25 µg/mL (≈ 0.327 µM). It also gave an MIC (S. aureus GC 6467; Mouse Serum pre-incubation) of 4 µg/mL (≈ 5.24 µM), an MIC (S. aureus GC 6467; Water pre-incubation) of 4 µg/mL (≈ 5.24 µM) and an MIC (S. aureus GC 1079; Mouse Serum pre-incubation) of 2 µg/mL (≈ 2.62 µM). For the same molecule, the MIC (S. aureus GC 1079; Water pre-incubation) was 4 µg/mL (≈ 5.24 µM), the MIC (S. epidermidis GC 4935; Mouse Serum pre-incubation) was 1 µg/mL (≈ 1.31 µM) and the MIC (S. epidermidis GC 4935; Water pre-incubation) was 2 µg/mL (≈ 2.62 µM). The MIC (E. faecalis GC 4555; Mouse Serum pre-incubation) was 0.5 µg/mL (≈ 0.655 µM), the MIC (E. faecalis GC 4555; Water pre-incubation) was 1 µg/mL (≈ 1.31 µM) and the MIC (E. faecalis GC 2267; Mouse Serum pre-incubation) was 2 µg/mL (≈ 2.62 µM). For the same molecule, the MIC (E. faecalis GC 2267; Water pre-incubation) was 2 µg/mL (≈ 2.62 µM), the MIC (E. faecium GC 4556; Mouse Serum pre-incubation) was 0.25 µg/mL (≈ 0.327 µM) and the MIC (E. faecium GC 4556; Water pre-incubation) was 0.5 µg/mL (≈ 0.655 µM). It also gave an MIC (S. pneumoniae* GC 4465; Mouse Serum pre-incubation) of less than 0.06 µg/mL, an MIC (S. pneumoniae* GC 4465; Water pre-incubation) of less than 0.06 µg/mL and an MIC (Staph.; [1]) of 0.25 to 4 µg/mL (≈ 0.327 to 5.24 µM). It also gave an MIC (Staph.; [2]) of 0.25 to 4 µg/mL (≈ 0.327 to 5.24 µM), an MIC (Staph.; read-out: Range of MIC, Staph. (mouse serum)) of 0.25 to 4 µg/mL (≈ 0.327 to 5.24 µM) and an MIC (Staph.; read-out: Range of MIC, Staph. (water)) of 0.25 to 4 µg/mL (≈ 0.327 to 5.24 µM).

CCCCN(CC(=O)Nc1cc(N(C)C)c2c(c1O)C(=O)C1=C(O)[C@]3(O)C(=O)C(C(N)=O)=C(O)[C@@H](N(C)C)[C@@H]3C[C@@H]1C2)C(=O)OCOC(=O)Cc1ccccc1 [Example 12, ({[(2-{[(5aR,6aS,7S,10aS)-9-(aminocarbonyl)-4,7-bis(dimethylamino)-1,8,10a,11-tetrahydroxy-10,12-dioxo-5,5a,6,6a,7,10,10a,12-octahydrotetracen-2-yl]amino}-2-oxoethyl)(butyl)amino]carbonyl}oxy)methyl phenylacetate] was tested, and the MIC (E. coli GC 2236; Mouse Serum pre-incubation) was 1 µg/mL (≈ 1.29 µM), the MIC (E. coli GC 2236; Water pre-incubation) was 16 µg/mL (≈ 20.6 µM) and the MIC (E. coli GC 2231; Mouse Serum pre-incubation) was 2 µg/mL (≈ 2.57 µM). For the same molecule, the MIC (E. coli GC 2231; Water pre-incubation) was 64 µg/mL (≈ 82.3 µM), the MIC (E. coli GC 2235; Mouse Serum pre-incubation) was 1 µg/mL (≈ 1.29 µM) and the MIC (E. coli GC 2235; Water pre-incubation) was 16 µg/mL (≈ 20.6 µM). It also gave an MIC (E. coli GC 2233; Mouse Serum pre-incubation) of 1 µg/mL (≈ 1.29 µM), an MIC (E. coli GC 2233; Water pre-incubation) of 32 µg/mL (≈ 41.1 µM) and an MIC (E. coli GC 2234; Mouse Serum pre-incubation) of 1 µg/mL (≈ 1.29 µM). The MIC (E. coli GC 2234; Water pre-incubation) was 16 µg/mL (≈ 20.6 µM), the MIC (E. coli GC 2272; Mouse Serum pre-incubation) was 1 µg/mL (≈ 1.29 µM) and the MIC (E. coli GC 2272; Water pre-incubation) was 16 µg/mL (≈ 20.6 µM). It also gave an MIC (E. coli GC 4560; Mouse Serum pre-incubation) of 0.25 µg/mL (≈ 0.321 µM), an MIC (E. coli GC 4560; Water pre-incubation) of 1 µg/mL (≈ 1.29 µM) and an MIC (E. coli GC 6465; Mouse Serum pre-incubation) of 8 µg/mL (≈ 10.3 µM). It also gave an MIC (E. coli GC 6465; Water pre-incubation) greater than 64 µg/mL, an MIC (E. coli GC 2203; Mouse Serum pre-incubation) of 1 µg/mL (≈ 1.29 µM) and an MIC (E. coli GC 2203; Water pre-incubation) of 32 µg/mL (≈ 41.1 µM). For the same molecule, the MIC (S. typhimurium GC 2172; Mouse Serum pre-incubation) was 4 µg/mL (≈ 5.14 µM), the MIC (S. typhimurium GC 2172; Water pre-incubation) was greater than 64 µg/mL and the MIC (S. aureus GC 1131; Mouse Serum pre-incubation) was 1 µg/mL (≈ 1.29 µM). For the same molecule, the MIC (S. aureus GC 1131; Water pre-incubation) was 2 µg/mL (≈ 2.57 µM), the MIC (S. aureus GC 6466; Mouse Serum pre-incubation) was 0.5 µg/mL (≈ 0.643 µM) and the MIC (S. aureus GC 6466; Water pre-incubation) was 1 µg/mL (≈ 1.29 µM). The MIC (S. aureus GC 6467; Mouse Serum pre-incubation) was 4 µg/mL (≈ 5.14 µM), the MIC (S. aureus GC 6467; Water pre-incubation) was 16 µg/mL (≈ 20.6 µM) and the MIC (S. aureus GC 1079; Mouse Serum pre-incubation) was 2 µg/mL (≈ 2.57 µM). It also gave an MIC (S. aureus GC 1079; Water pre-incubation) of 8 µg/mL (≈ 10.3 µM), an MIC (S. epidermidis GC 4935; Mouse Serum pre-incubation) of 4 µg/mL (≈ 5.14 µM) and an MIC (S. epidermidis GC 4935; Water pre-incubation) of 8 µg/mL (≈ 10.3 µM). It also gave an MIC (E. faecalis GC 4555; Mouse Serum pre-incubation) of 0.5 µg/mL (≈ 0.643 µM), an MIC (E. faecalis GC 4555; Water pre-incubation) of 4 µg/mL (≈ 5.14 µM) and an MIC (E. faecalis GC 2267; Mouse Serum pre-incubation) of 2 µg/mL (≈ 2.57 µM). The MIC (E. faecalis GC 2267; Water pre-incubation) was 8 µg/mL (≈ 10.3 µM), the MIC (E. faecium GC 4556; Mouse Serum pre-incubation) was 1 µg/mL (≈ 1.29 µM) and the MIC (E. faecium GC 4556; Water pre-incubation) was 4 µg/mL (≈ 5.14 µM). It also gave an MIC (S. pneumoniae* GC 4465; Mouse Serum pre-incubation) of less than 0.06 µg/mL, an MIC (S. pneumoniae* GC 4465; Water pre-incubation) of 0.12 µg/mL (≈ 0.154 µM) and an MIC (Staph.; read-out: Minimum inhibitory concentration (MIC), Staph. (mouse serum)) of 0.5 to 4 µg/mL (≈ 0.643 to 5.14 µM). For the same molecule, the MIC (Staph.; read-out: Minimum inhibitory concentration (MIC), Staph. (water)) was 1 to 16 µg/mL (≈ 1.29 to 20.6 µM), the MIC (Staph.; [1]) was 0.5 to 4 µg/mL (≈ 0.643 to 5.14 µM) and the MIC (Staph.; [2]) was 1 to 16 µg/mL (≈ 1.29 to 20.6 µM).
